Drawing on ChEMBL document CHEMBL5038589, “Design, Synthesis, and Structure-Activity Relationship of N-Aryl-N'-(thiophen-2-yl)thiourea Derivatives as Novel and Specific Human TLR1/2 Agonists for Potential Cancer Immunotherapy” (J Med Chem, 2021), this text covers Kd, Activity and EC50 for 51 compounds.

Active and inactive are the calls of the source. The rule behind the calls is not given here.

The target of the first assay is T1, Toll-like receptor 2 (Homo sapiens, UniProt O60603). Put plainly: Binding affinity to recombinant human TLR2 expressed in H5 cells by surface plasmon resonance method.
T1 sequence (O60603 whole entry): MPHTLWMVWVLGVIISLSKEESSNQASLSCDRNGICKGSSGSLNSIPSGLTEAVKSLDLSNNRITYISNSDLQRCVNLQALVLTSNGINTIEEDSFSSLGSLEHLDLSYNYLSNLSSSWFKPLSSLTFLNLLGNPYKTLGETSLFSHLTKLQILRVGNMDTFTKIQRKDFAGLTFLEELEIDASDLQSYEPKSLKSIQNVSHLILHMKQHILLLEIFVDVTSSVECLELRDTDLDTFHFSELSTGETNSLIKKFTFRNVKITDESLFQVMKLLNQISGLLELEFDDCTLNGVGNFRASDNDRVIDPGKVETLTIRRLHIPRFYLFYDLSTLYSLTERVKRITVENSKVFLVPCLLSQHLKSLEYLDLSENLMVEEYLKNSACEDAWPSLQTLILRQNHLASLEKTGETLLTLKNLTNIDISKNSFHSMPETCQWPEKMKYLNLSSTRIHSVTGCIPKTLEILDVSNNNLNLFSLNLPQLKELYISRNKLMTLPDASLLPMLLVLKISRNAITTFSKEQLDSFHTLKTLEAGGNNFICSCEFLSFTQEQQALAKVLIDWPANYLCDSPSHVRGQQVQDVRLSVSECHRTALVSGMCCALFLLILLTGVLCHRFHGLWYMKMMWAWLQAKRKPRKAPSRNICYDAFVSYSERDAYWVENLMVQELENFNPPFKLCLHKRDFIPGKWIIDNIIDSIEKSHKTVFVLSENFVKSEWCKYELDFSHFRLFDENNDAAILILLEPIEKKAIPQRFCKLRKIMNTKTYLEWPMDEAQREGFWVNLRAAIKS
Conditions: not given
Background: Surface plasmon resonance follows binding to a sensor surface in real time, without labels.
With `CCOC(=O)c1c(NC(=O)Nc2ccccc2)sc2c1CCCCC2`, the Kd (commonly the equilibrium constant for the complex coming apart) stood at 9 µM.

The target in a further assay is T1, Toll-like receptor 2. Put plainly: Agonist activity at TLR2 in HEK-Blue cells upto 200 uM incubated for 24 hrs by Quanti-Blue based SEAP assay. The format is cell-based. The settings on record: HEK-Blue hTLR2, dose microM <=200, time 24.0 hrs.
As for `CCOC(=O)c1c(NC(=O)Nc2ccc(Cl)c(Cl)c2)sc2c1CCCC2`, the result was inactive.
`CCOC(=O)c1c(NC(=S)Nc2cccc3ccccc23)sc2c1CCN(C)C2`: the outcome was inactive.
Regarding `CC(C)(C)OC(=O)c1c(NC(=S)Nc2cccc3ccccc23)sc2c1CCCC2`, the outcome was inactive.
The same measure, in the same setting: in the case of `CCOC(=O)c1c(NC(=O)Nc2cccc(Cl)c2)sc2c1CCC2` it was “inactive”.
Consider `CCOC(=O)c1c(NC(=S)NCCCSC)sc2c1CCCC2`, for which the outcome was inactive.
Consider `O=C(O)c1c(NC(=S)Nc2cccc3ccccc23)sc2c1CCCC2`, for which the outcome was inactive.
The same measure, in the same setting: in the case of `CC(C)OC(=O)c1c(-c2ccccc2)csc1NC(=S)Nc1cccc2ccccc12` it was “inactive”.
On the same count and under the same terms, next, `CCOC(=O)c1ccsc1NC(=S)Nc1cccc2ccccc12`: “inactive”.
The same measure, in the same setting: next, `CC(C)(C)OC(=O)c1c(NC(=S)Nc2cccc3ccccc23)sc2c1CCC2`: “inactive”; `CCOC(=O)c1c(NC(=O)Nc2ccc(Cl)c(Cl)c2)sc2c1CCC2`: “inactive”.
For `COC(=O)c1c(NC(=O)Nc2ccc(Cl)cc2)sc2c1CCCC2`, the result was inactive.
Still for that read-out and setting: next, `O=C(OCCc1ccccc1)c1c(NC(=S)Nc2cccc3ccccc23)sc2c1CCC2`: “inactive”.
Same read-out and setting: next, `COC(=O)c1c(NC(=S)NCCc2ccccc2)sc2c1CCCC2`: “inactive”.
Still for that read-out and setting: in the case of `CCOC(=O)c1c(NC(=O)Nc2ccc(Cl)cc2)sc2c1CCC2` it was “inactive”.
On to `CCCCOC(=O)c1c(NC(=S)Nc2cccc3ccccc23)sc2c1CCCC2`, for which the result was inactive.
Still for that read-out and setting: next, `CCOC(=O)c1c(-c2ccccc2)csc1NC(=S)Nc1cccc2ccccc12`: “inactive”.
Still for that read-out and setting: next, `CC(C)OC(=O)c1c(NC(=S)Nc2cccc3ccccc23)sc2c1CCN(C)C2`: “inactive”; `COC(=O)c1c(NC(=O)Nc2ccc(C)cc2)sc2c1CCC2`: “inactive”.
Same read-out and setting: next, `O=C(O)c1c(NC(=S)Nc2cccc3ccccc23)sc2c1CCC2`: “inactive”.
Turning to `CCOC(=O)c1c(NC(=O)Nc2ccc(Cl)cc2)sc2c1CCCC2`, the outcome was inactive.
On to `COC(=O)c1c(NC(=S)NCCCSC)sc2c1CCCC2`, for which the result was inactive.
Still for that read-out and setting: next, `COC(=O)c1c(NC(=O)Nc2ccc(Cl)cc2)sc2c1CCC2`: “inactive”.
`CC(C)OC(=O)c1ccsc1NC(=S)Nc1cccc2ccccc12`: the outcome was inactive.

In the next assay the target is T1, Toll-like receptor 2. Put plainly: Agonist activity at TLR2 in HEK-Blue cells incubated for 24 hrs by Quanti-Blue based SEAP assay. Format: cell-based, HEK-Blue hTLR2.
Conditions: not given
As for `CC(C)OC(=O)c1c(NC(=S)Nc2ccc(F)c3ccccc23)sc2c1CCCC2`, a half-maximal response (EC50) required 0.035 µM.
Still for that read-out and setting: next, `CCOC(=O)c1c(NC(=S)Nc2ccc(-c3ccccc3)cc2)sc2c1CCC2`: 7.13 µM.
For the compound `CCOC(=O)c1c(NC(=O)Nc2ccc(C)cc2)sc2c1CCCC2`, it took 14.6 µM to reach a half-maximal effect (EC50).
The same measure, in the same setting: next, `COC(=O)c1c(NC(=S)Nc2cccc3ccccc23)sc2c1CCC2`: 3.57 µM; `CCOC(=O)c1c(N=C(S)Nc2ccc(F)cc2)sc2c1CCC2`: 13.3 µM; `CCOC(=O)c1c(NC(=O)Nc2cccc3ccccc23)sc2c1CCC2`: 7.6 µM.
The same measure, in the same setting: next, `CC(C)COC(=O)c1c(NC(=S)Nc2cccc3ccccc23)sc2c1CCC2`: 28.2 µM; `CC(C)OC(=O)c1c(NC(=S)Nc2ccc(Br)c3ccccc23)sc2c1CCC2`: 0.039 µM.
Still for that read-out and setting: in the case of `COC(=O)c1c(NC(=S)Nc2ccc(C(F)(F)F)cc2)sc2c1CCCC2` it was 33.9 µM.
For the compound `CCOC(=O)c1c(NC(=S)Nc2ccc(F)cc2)sc2c1CCCC2`, it took 12.1 µM to reach a half-maximal effect (EC50). This EC50 lies about 2.8-fold lower than the previous one.
The same measure, in the same setting: in the case of `COC(=O)c1c(NC(=S)Nc2ccc(C)cc2)sc2c1CCCC2` it was 10.3 µM.
Still for that read-out and setting: in the case of `COC(=O)c1c(NC(=S)Nc2cccc3ccccc23)sc2c1CCCC2` it was 7.33 µM.
Still for that read-out and setting: next, `CCOC(=O)c1c(NC(=S)Nc2ccc(C(F)(F)F)cc2)sc2c1CCCC2`: 11.9 µM; `COC(=O)c1c(NC(=S)Nc2ccccc2)sc2c1CCC2`: 14.1 µM; `CCOC(=O)c1c(NC(=O)Nc2ccc(C)cc2)sc2c1CCC2`: 12.1 µM.
Consider `CCCOC(=O)c1c(NC(=S)Nc2cccc3ccccc23)sc2c1CCC2`, for which the EC50 – broadly, the concentration that produces a half-maximal response – was found to be 0.82 µM.
On the same count and under the same terms, in the case of `CCOC(=O)c1c(NC(=S)Nc2ccc(C)cc2)sc2c1CCCC2` it was 8.77 µM.
Same read-out and setting: in the case of `CCOC(=O)c1c(NC(=O)Nc2ccccc2)sc2c1CCCCC2` it was 11.7 µM; in that of `CC(C)COC(=O)c1c(NC(=S)Nc2cccc3ccccc23)sc2c1CCCC2`, 30.4 µM.
As to `CCOC(=O)c1c(NC(=S)Nc2ccc(Cl)cc2)sc2c1CCC2`, the EC50 worked out at 2.5 µM.
The same measure, in the same setting: next, `CCOC(=O)c1c(NC(=S)Nc2cccc3ccccc23)sc2c1CCCCC2`: 2.35 µM.
The same measure, in the same setting: next, `COC(=O)c1c(NC(=S)Nc2ccccc2)sc2c1CCCC2`: 14.7 µM; `CCOC(=O)c1c(NC(=O)Nc2cccc3ccccc23)sc2c1CCCC2`: 5.84 µM; `CCOC(=O)c1c(NC(=S)Nc2ccccc2)sc2c1CCC2`: 5.9 µM.
Same read-out and setting: in the case of `CC(C)OC(=O)c1c(NC(=S)Nc2cccc3ccccc23)sc2c1CCCC2` it was 0.14 µM; in that of `CCOC(=O)c1c(NC(=O)Nc2ccccc2)sc2c1CCC2`, 11.9 µM.
For `CCOC(=O)c1c(NC(=S)Nc2cccc3ccccc23)sc2c1CCC(C)C2` (configuration not stated), the half-maximal effective concentration (EC50) was found to be 1.73 µM.
Same read-out and setting: in the case of `CCOC(=O)c1c(N=C(S)Nc2ccccc2)sc2c1CCCCC2` it was 28.5 µM.
